Measured values from US20250376466A1, “ESTER COMPOUNDS AND USE THEREOF” (NANJING REJU THERAPEUTICS, CO., LTD., priority 2022, published 2025).

How the values were obtained:
[1] = system: normal and senescent A549 cells; assay: Senescent cell clearance index (senolytic index); format: cell-based, human; conditions: higher index = greater specificity
Procedure: (§1) In this example, human non-small cell lung cancer cell line (A549 cells), human embryonic lung fibroblast cell line (IMR90 cells), human retinal pigment epithelial cells (RPE cells), mouse chondrocytes, and mouse skin fibroblasts were selected. The cells above were induced to obtain senescent cells by etoposide (10 μM). The effect of the target compounds RZ001-RZ006 and RZ201 on the viability of normal and senescent cells above was detected, thereby evaluating the specific killing effect of the prodrugs RZ001-RZ006 and RZ201 on senescent cells above.
(§2) Briefly, senescent and normal cells above were selected and plated separately (96-well plates). After adding the compounds RZ001-RZ006 and RZ201 (concentration: 1 μM) for 72 hours, CellTiter-Glo® Luminescent Cell Viability Assay Kit (Promega) was used to detect cell viability, and the results were shown in FIGS. 2A to 2E.
Furthermore, the senescent cell clearance index (senolytic index) was also calculated for both normal and senescent A549 cells, as shown in Table 4. A higher index indicates greater specificity in eliminating senescent cells and better safety.

[2] = system: senescent A549 cells, IMR90 cells, RPE cells, mouse chondrocytes, mouse skin fibroblasts; assay: Cell viability of senescent cells (CellTiter-Glo); format: cell-based, human; conditions: 1 μM, 72 hours; etoposide (10 μM)-induced senescent cells; FIGS. 2A to 2E
Procedure: as §1, §2

[3] = system: normal A549 cells, IMR90 cells, RPE cells, mouse chondrocytes, mouse skin fibroblasts; assay: Cell viability of normal cells (CellTiter-Glo); format: cell-based, human; conditions: 1 μM, 72 hours, FIGS. 2A to 2E
Procedure: as §1, §2

[4] = system: idiopathic pulmonary fibrosis; assay: Bleomycin idiopathic pulmonary fibrosis animal model; format: in vivo, SD rats; conditions: intraperitoneal (IP) 5 mg/kg, 3 consecutive weeks from day 7; Day 28; FIG. 6
Procedure: In this example, the efficacy of the compounds of the present disclosure was tested on idiopathic pulmonary fibrosis in an idiopathic pulmonary fibrosis animal model. Briefly, anesthetized 6-week-old SD rats were fixed on a foam board with medical tape. Firstly, the skin on the surface of the trachea was cut with surgical scissors to fully expose the trachea, and a 100-microlitre micro-syringe containing a certain volume of bleomycin (BLM 5 mg/kg) solution drawn based on the body weight of the rat was inserted into the trachea through the oral cavity to administer by slow bolus injection. After administration of the BLM solution, the foam plate was immediately rotated and shaken to distribute the BLM solution as evenly as possible in the lung tissue. Then the skin on the surface of the trachea was sutured with surgical sutures and about 0.5 to 1.0 mL of penicillin solution was dripped onto the epidermis to prevent infection of the surgical wound. After the 7th day of modelling, the compound solution of the present disclosure was administered via intraperitoneal (IP) injection (5 mg/kg) according to the weight of the rat for 3 consecutive weeks. Rats were euthanized by carbon dioxide at Day 28, the lung tissues were removed, the left alveolar lavage fluid was collected for white blood cell (WBC) counting, the right lung tissue portion was used for hydroxyproline (HYP) assay, and the remaining lung tissues were stained for pathology by H&E staining and Masson staining.

osteoarthritis = assay: Osteoarthritis animal model; format: in vivo, mice; conditions: intra-articular injection; FIG. 7
Procedure: In this example, the efficacy of the compounds of the present disclosure was tested on osteoarthritis in an osteoarthritis animal model.
The osteoarthritis animal model was constructed by the following steps. The mice were anesthetized with isoflurane, and fixed. The hair on the right hind limb of the mice was shaved and the skin was disinfected with alcohol, and the skin of the joints was cut. Under an optical microscope, the inside of the right knee joint was incised longitudinally with a blade, without cutting the patellar ligament. The patellar ligament was pulled to one side with constant hemostasis by compression with sterile cotton swabs such that the joint cavity was fully exposed. Saline was added dropwise in time to avoid the drying up of the joint cavity. The excess muscle tissue was gently separated with a blunt forceps to expose the meniscus ligament. The anterior cruciate ligament was found in the depth of the joint cavity and cut with micro scissor. Then the wound was disinfected with penicillin solution, the muscle was sutured with sterile needle and thread, and the skin tissue was finally sutured. The efficacy of the drug was determined by intra-articular injection administration. At the endpoint of the test, continued pain threshold of the plantar was detected, and the bone joints were stained with safranin fast green.

renal fibrosis = assay: Renal fibrosis animal model (ureter ligation); format: in vivo, mice; conditions: intraperitoneal (IP) injection from 2nd week of modelling; FIG. 11
Procedure: In this example, the efficacy of the compound of the present disclosure was tested on renal fibrosis in an animal model of renal fibrosis. Briefly, C57BL/6J mice, male, 7 to 8 weeks old, were used. The mice were anaesthetized, made to lie supine on a foam board, and disinfected with iodophor, and a longitudinal incision was made in the skin in the middle of the lower abdomen to locate the white line of the abdominal muscle, where the abdominal muscle, fascia and peritoneal layer were dissected. After exposing the surgical field, the kidneys were exposed by pushing the stomach and mesentery of the mice to the right side with a gauze soaked with saline. The model of renal fibrosis was constructed by locating the transparent ureter from the renal pelvis along the renal artery, separating the left ureter, ligating the upper ⅓ of the left ureter, suturing the incision layer by layer, and finally disinfecting with iodophor. Dosing via intraperitoneal injection was started from the 2nd week of modelling. At the end of the experiment, the mouse serum was collected and kidney tissues were taken for Masson staining index assay.

Alzheimer's disease = assay: APP×PS1 transgenic mouse model of Alzheimer's disease; format: in vivo; conditions: intraperitoneal injection, twice a week, 11 consecutive weeks; cerebral cortex; FIG. 8
Procedure: In this example, the efficacy of the compounds of the present disclosure was tested on Alzheimer's disease in an animal model of Alzheimer's disease. Briefly, a transgenic mouse model of APP×PS1 (purchased from Cyagen Biosciences) was selected and the compound of the present disclosure was administered by intraperitoneal injection for 11 consecutive weeks, twice a week. Alterations in amyloid in the cerebral cortex of the mice were observed.

diabetic retinopathy = assay: Mouse model of diabetic retinopathy (STZ), Evans blue penetration; format: in vivo; conditions: intravitreal (IVT), 1 μL of 200 μM at 8 and 9 weeks after STZ; Evans blue at 10 weeks; FIG. 4
Procedure: The efficacy of the compounds of the present disclosure was studied in a mouse model of diabetic retinopathy by multiple administrations of streptozotocin (STZ). C57BL/6J mice at 6 to 7 weeks were weighed and their baseline blood glucose was measured (Sino). STZ (Sigma-Aldrich) was injected intraperitoneally into the mice at 55 mg/Kg for five consecutive days. Age-matched controls were injected with buffer only. Blood glucose was measured again one week after the last STZ injection. 1 μL of the test compound (200 μM, a suspension formulated in 0.015% polysorbate 80, 0.2% sodium phosphate, 0.75% sodium chloride, pH 7.2) was injected intravitreally into the STZ-treated diabetic C57BL/6J mice at 8 and 9 weeks after STZ administration. 10 weeks after STZ treatment, the retinal Evans blue penetration assay was performed.

aging skin = assay: Aging skin in naturally aging mouse model; format: in vivo; conditions: skin application twice a week, 6 consecutive weeks; aged female mice (22 months old); FIG. 10
Procedure: In this example, aged female C57bl/6J mice (22 months old) were used. The drug was administered by skin application at twice a week for 6 consecutive weeks.

hepatic fibrosis = assay: CCl4 mouse model of hepatic fibrosis; format: in vivo, mice; conditions: intraperitoneal (IP) injection twice a week from third week of modelling; FIG. 9
Procedure: In this example, the efficacy of the compounds of the present disclosure was tested on hepatic fibrosis in an animal model of hepatic fibrosis. Briefly, C57BL/6N mice, male, 7 to 8 weeks old, 24 to 28 g of body weight, were used. The mouse model of hepatic fibrosis was induced by intraperitoneal injection of CCl4 solution at a dosage of 1 mL/kg, with a dosing frequency of 2 times/week, and a modelling cycle of 6 weeks. Dosing via intraperitoneal injection was started from the third week of modelling twice a week. At the end of the test, serum was collected, and liver tissue was taken for Masson staining index assay.

[5] = system: wet-age-related macular degeneration (CNV); assay: CNV animal model of wet age-related macular degeneration; format: in vivo, mice; conditions: intravitreal (IVT); laser CNV model; FIG. 5
Procedure: In this example, the efficacy of the compounds of the present disclosure was tested on wet-age-related macular degeneration in a CNV animal model.
Male mice were administered 0.5% probacaine hydrochloride (Alcon) for local anesthesia, and 1% tropicamide to dilate the pupils of the mice. Laser cauterization was performed using a laser photocoagulator (Novus Varia, LUMENIS) with a slit lamp delivery system. And artificially torn adherent glass coverslips were used as contact lenses. Bleeding spots caused by laser were not included in the statistical data.

`CCCC(=O)OCOC(=O)c1nc(N2CCc3cccc(C(=O)Nc4nc5ccccc5s4)c3C2)ccc1-c1cnn(CC23CC4CC(CC(C4)C2)C3)c1C` [RZ004] was tested, and the “senescent cell clearance index (Senolytic Index)” value (“senescent cell clearance index” below) [1] was “B (B represents 100 to 200)”.

In the case of `Cc1c(-c2ccc(N3CCc4cccc(C(=O)Nc5nc6ccccc6s5)c4C3)nc2C(=O)O)cnn1CC12CC3CC(CC(C3)C1)C2` [Compound A-1331852, reference compound], the “senescent cell clearance index” value [1] is reported as “D (D represents 30 to 50)”, the “cytotoxicity against senescent cells (cell viability)” value [2] is reported as “killing senescent cells” and the “cytotoxicity against normal cells (cell viability)” value [3] is reported as “significant cytotoxicity against normal cells”.

With `CCC(=O)OC(OC(=O)c1nc(N2CCc3cccc(C(=O)Nc4nc5ccccc5s4)c3C2)ccc1-c1cnn(CC23CC4CC(CC(C4)C2)C3)c1C)C(C)C` (stereo not drawn) [RZ007] the “senescent cell clearance index” value [1] was “B (B represents 100 to 200)”.

For `CC(=O)OCOC(=O)c1nc(N2CCc3cccc(C(=O)Nc4nc5ccccc5s4)c3C2)ccc1-c1cnn(CC23CC4CC(CC(C4)C2)C3)c1C` [RZ005], the “senescent cell clearance index” value [1] was “B (B represents 100 to 200)”.

`Cc1c(-c2ccc(N3CCc4cccc(C(=O)Nc5nc6ccccc6s5)c4C3)nc2C(=O)OCOC(=O)OC(C)C)cnn1CC12CC3CC(CC(C3)C1)C2` [RZ002] was tested, and the “senescent cell clearance index” value [1] was “B (B represents 100 to 200)”, the “HYP (hydroxyproline, lung tissue)” value [4] was “statistically significant improvements” and the “WBC (white blood cell count, alveolar lavage fluid)” value [4] was “statistically significant improvements”. For the same compound, the “pathology scores (H&E and Masson staining, lung)” value [4] was “statistically significant improvements”, the “pathology scores of safranin fast green staining” value (osteoarthritis) was “statistically significant improvements” and the “plantar mechanical pain threshold” value (osteoarthritis) was “statistically significant improvements”. For the same compound, the “pathology (kidney, Masson staining)” value (renal fibrosis) was “statistically significant improvements”, the “serum creatinine (Cr) levels” value (renal fibrosis) was “statistically significant improvements” and the “serum urea nitrogen (BUN) levels” value (renal fibrosis) was “statistically significant improvements”. For the same compound, the “Aβ42 pathogenic protein indicators” value (Alzheimer's disease) was “statistically significant improvements”, the “vascular permeability in both the retinal and choroidal vascular leakage” value (diabetic retinopathy) was “improved vascular permeability” and the “epidermal thickness scores of the skin” value (aging skin) was “statistically significant improvements”. The “pathology scores (liver, Masson staining)” value (hepatic fibrosis) was “statistically significant improvements”, the “serum alanine aminotransferase (ALT) levels” value (hepatic fibrosis) was “statistically significant improvements” and the “serum aspartate aminotransferase (AST) levels” value (hepatic fibrosis) was “statistically significant improvements”. For the same compound, the fluorescence intensity indicators [5] was “statistically significant improvements”.

For `Cc1c(-c2ccc(N3CCc4cccc(C(=O)Nc5nc6ccccc6s5)c4C3)nc2C(=O)OCOC(=O)C(C)(C)C)cnn1CC12CC3CC(CC(C3)C1)C2` [RZ003], the “senescent cell clearance index” value [1] was “B (B represents 100 to 200)”.

In the case of `Cc1c(-c2ccc(N3CCc4cccc(C(=O)Nc5nc6ccccc6s5)c4C3)nc2C(=O)OCCN2CCOCC2)cnn1CC12CC3CC(CC(C3)C1)C2` [RZ011], the “senescent cell clearance index” value [1] is reported as “F (F represents less than 10)”.

For `CCOC(=O)c1nc(N2CCc3cccc(C(=O)Nc4nc5ccccc5s4)c3C2)ccc1-c1cnn(CC23CC4CC(CC(C4)C2)C3)c1C` [RZ202], the “senescent cell clearance index” value [1] was “F (F represents less than 10)”.

`Cc1c(-c2ccc(N3CCc4cccc(C(=O)Nc5nc6ccccc6s5)c4C3)nc2C(=O)OCOC(=O)[C@@H](N)C(C)C)cnn1CC12CC3CC(CC(C3)C1)C2` [RZ301] was tested, and the “senescent cell clearance index” value [1] was “B (B represents 100 to 200)”.

`CCCCOC(=O)c1nc(N2CCc3cccc(C(=O)Nc4nc5ccccc5s4)c3C2)ccc1-c1cnn(CC23CC4CC(CC(C4)C2)C3)c1C` [RZ008] was tested, and the “senescent cell clearance index” value [1] was “F (F represents less than 10)”.

With `Cc1c(-c2ccc(N3CCc4cccc(C(=O)Nc5nc6ccccc6s5)c4C3)nc2C(=O)OC(C)OC(=O)OC(C)C)cnn1CC12CC3CC(CC(C3)C1)C2` (stereo not drawn) [RZ010] the “senescent cell clearance index” value [1] was “C (C represents 50 to 100)”.

For `Cc1c(-c2ccc(N3CCc4cccc(C(=O)Nc5nc6ccccc6s5)c4C3)nc2C(=O)OC(C)OC(=O)C(C)C)cnn1CC12CC3CC(CC(C3)C1)C2` (stereo not drawn) [RZ009], the “senescent cell clearance index” value [1] was “B (B represents 100 to 200)”.

In the case of `CCOC(=O)OCOC(=O)c1nc(N2CCc3cccc(C(=O)Nc4nc5ccccc5s4)c3C2)ccc1-c1cnn(CC23CC4CC(CC(C4)C2)C3)c1C` [RZ006], the “senescent cell clearance index” value [1] is reported as “B (B represents 100 to 200)”.
